The values below come from US8822517B2, “Arylosulfonamides for the treatment of CNS diseases” (Adamed SP. Z O.O., priority 2010, dated 2014).

Test [1] has as its target T1, serotoninergic 5-HT1A receptor (Homo sapiens, UniProt P08908).
T1 sequence (P08908 1-422): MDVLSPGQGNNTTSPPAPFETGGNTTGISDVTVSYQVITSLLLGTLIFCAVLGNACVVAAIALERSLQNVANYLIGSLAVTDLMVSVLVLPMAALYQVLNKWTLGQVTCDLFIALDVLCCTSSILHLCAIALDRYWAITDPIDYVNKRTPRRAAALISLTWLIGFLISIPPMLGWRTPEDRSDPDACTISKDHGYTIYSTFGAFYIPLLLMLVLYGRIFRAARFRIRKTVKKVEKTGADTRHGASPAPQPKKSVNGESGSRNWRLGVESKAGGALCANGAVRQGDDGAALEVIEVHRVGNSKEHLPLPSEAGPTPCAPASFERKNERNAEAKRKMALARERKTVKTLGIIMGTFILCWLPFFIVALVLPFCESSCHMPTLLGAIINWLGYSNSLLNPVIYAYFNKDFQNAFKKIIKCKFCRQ
The experiment in a line: Binding assay 5-HT1A (h), [3H]8-OH-DPAT, HEK-293 cells. The note with it: read-out: 5-HT1A. Details: expressed in transfected cells; host or cells: HEK-293 cells. Summed up:
(§1)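 Radioligand displacement with compounds at 1×10^−6 M, detected by scintillation counting. Specific binding taken as total minus non-specific binding measured with excess unlabelled ligand.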

Test [2] deals with T2, dopaminergic D2 receptor (Homo sapiens, UniProt P14416). The experiment in a line: Cellular functional assay, dopaminergic D2 receptor (agonism/antagonism). Format: cell-based. The note with it: HEK293; for activation at 1 µM: agonist effect, percent of control specific agonist response (3 μM dopamine for control), 1×10^−6 M, D2S (h), HEK-293 cells, read-out: D2-ag [%]; for inhibition at 1 µM: read-out: D2-antag. [%]. The method, then:
(§2) The compounds were tested at the concentration of 1×10^−6M.
(§3) In the Tables ag refers to agonism, and antag to antagonism).
Target sequence in this assay (P14416 whole entry): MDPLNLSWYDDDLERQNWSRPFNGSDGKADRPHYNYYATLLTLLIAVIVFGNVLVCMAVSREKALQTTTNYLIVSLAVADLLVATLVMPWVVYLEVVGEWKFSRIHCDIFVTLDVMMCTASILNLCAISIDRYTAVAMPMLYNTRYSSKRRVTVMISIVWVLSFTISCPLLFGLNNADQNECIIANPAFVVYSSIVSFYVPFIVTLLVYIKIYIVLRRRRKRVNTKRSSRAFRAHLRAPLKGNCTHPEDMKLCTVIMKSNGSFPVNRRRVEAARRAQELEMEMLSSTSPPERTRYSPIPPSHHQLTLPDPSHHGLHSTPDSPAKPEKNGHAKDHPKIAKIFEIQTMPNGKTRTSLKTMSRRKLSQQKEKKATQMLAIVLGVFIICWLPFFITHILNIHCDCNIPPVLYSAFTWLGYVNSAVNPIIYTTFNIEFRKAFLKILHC

The target of test [3] is T3, adrenergic α2C receptor (Homo sapiens, UniProt P18825).
T3 sequence (P18825 1-462): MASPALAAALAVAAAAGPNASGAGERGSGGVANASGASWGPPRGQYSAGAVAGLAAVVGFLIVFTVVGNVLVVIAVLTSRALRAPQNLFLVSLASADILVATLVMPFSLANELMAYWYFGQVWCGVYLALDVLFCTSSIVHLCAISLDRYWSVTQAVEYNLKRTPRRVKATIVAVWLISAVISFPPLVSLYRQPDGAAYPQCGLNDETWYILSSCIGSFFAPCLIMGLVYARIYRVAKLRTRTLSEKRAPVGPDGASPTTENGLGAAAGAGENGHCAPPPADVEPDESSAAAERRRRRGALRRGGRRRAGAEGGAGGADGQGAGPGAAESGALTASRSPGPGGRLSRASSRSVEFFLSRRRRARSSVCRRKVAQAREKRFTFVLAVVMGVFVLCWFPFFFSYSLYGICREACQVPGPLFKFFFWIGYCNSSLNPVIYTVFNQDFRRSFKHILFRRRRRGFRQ
The experiment in a line: Binding assay α2C (h), [3H]RX 821002, CHO cells. The conditions noted are these: read-out: α2C [%]. Details: expressed in transfected cells; host or cells: CHO cells. The method, boiled down:
as §1

The target in test [4] is serotoninergic 5-HT7 receptor (Homo sapiens, UniProt P34969). The experiment in a line: Cellular functional assay, serotoninergic 5-HT7 receptor (agonism/antagonism). Format: cell-based. The conditions noted are these: for activation at 1 µM: agonist effect, percent of control specific agonist response, compounds tested at 1×10^−6M, read-out: 5-HT7-ag [%]; for inhibition at 1 µM: read-out: 5-HT7-antag. [%]. The method, then:
as §2, §3

Test [5] has as its target T2, dopaminergic D2 receptor. The experiment in a line: Binding assay D2S (h), [3H]methyl-spiperone, HEK-293 cells. Also noted: expressed in transfected cells; host or cells: HEK-293 cells. The note with it: read-out: D2 [%]. The method, boiled down:
as §1
Target sequence in this assay (P14416 1-414 isoform P14416-2): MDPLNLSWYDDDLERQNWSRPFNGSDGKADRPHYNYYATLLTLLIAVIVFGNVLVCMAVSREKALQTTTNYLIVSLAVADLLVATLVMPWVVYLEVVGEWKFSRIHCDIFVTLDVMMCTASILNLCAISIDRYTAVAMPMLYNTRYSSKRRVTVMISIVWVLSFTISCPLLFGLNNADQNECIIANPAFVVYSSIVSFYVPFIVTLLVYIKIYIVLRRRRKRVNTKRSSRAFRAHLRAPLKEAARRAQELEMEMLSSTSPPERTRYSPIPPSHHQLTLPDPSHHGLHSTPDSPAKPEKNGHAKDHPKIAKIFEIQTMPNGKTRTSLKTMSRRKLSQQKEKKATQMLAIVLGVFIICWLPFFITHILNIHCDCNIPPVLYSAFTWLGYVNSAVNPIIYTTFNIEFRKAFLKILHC

For test [6], the target named is T3, adrenergic α2C receptor. Nature of the test: Cellular functional assay, adrenergic α2C receptor (agonism/antagonism). In kind it is cell-based. The note with it: for activation at 1 µM: agonist effect, percent of control specific agonist response, compounds tested at 1×10^−6M, read-out: α2C −ag [%]; for inhibition at 1 µM: read-out: α2C −antag. [%]. The method, then:
as §2, §3

In another test the target is T4, muscarinic M3 receptor (Homo sapiens, UniProt P20309).
T4 construct: expressed in transfected cells; host or cells: CHO cells
T4 sequence (P20309 whole entry): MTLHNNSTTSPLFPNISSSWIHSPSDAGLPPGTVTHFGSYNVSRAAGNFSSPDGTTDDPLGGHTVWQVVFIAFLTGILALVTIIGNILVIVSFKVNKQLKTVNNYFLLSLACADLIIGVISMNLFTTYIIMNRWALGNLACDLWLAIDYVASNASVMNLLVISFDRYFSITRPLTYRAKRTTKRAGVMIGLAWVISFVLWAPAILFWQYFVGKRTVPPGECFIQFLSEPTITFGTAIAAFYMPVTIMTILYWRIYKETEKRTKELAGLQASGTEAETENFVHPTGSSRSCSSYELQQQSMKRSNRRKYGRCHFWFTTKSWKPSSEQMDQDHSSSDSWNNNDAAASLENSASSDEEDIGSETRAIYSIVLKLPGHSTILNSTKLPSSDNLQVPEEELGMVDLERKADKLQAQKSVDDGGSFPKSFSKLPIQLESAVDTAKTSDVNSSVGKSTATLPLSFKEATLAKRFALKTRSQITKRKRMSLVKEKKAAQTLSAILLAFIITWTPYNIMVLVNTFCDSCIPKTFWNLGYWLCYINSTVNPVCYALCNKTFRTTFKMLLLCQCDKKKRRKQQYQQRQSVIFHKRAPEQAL
Nature of the test: Binding assay M3 (h), [3H]4-DAMP, CHO cells. The conditions noted are these: read-out: M3 [%]. Summed up: as §1

The next test concerns the target T5, adrenergic α1A receptor (Homo sapiens, UniProt P35348).
T5 sequence (P35348 1-466): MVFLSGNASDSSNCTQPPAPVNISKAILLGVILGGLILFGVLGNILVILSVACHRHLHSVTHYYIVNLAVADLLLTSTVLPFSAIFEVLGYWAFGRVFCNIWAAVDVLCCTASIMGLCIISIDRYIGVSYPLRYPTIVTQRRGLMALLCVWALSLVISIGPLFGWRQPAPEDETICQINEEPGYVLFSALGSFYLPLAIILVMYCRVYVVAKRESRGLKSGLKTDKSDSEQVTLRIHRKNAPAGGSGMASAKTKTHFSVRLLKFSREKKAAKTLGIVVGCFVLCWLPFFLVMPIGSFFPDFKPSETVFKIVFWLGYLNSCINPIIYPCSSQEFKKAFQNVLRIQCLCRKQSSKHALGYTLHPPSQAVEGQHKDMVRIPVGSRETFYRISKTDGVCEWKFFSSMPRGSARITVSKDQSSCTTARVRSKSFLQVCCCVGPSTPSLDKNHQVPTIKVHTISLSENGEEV
The experiment in a line: Cellular functional assay, adrenergic α1A receptor (agonism/antagonism). Format: cell-based. The note with it: for activation at 1 µM: agonist effect, percent of control specific agonist response, compounds tested at 1×10^−6M, read-out: α1A -ag [%]; for inhibition at 1 µM: read-out: α1A -antag. [%]. Summed up: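 Human receptors tested in cell-based functional format for both agonist and antagonist modes. Single compound concentration of 1×10^−6M.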

In another test the test system is sigma σ receptor. Nature of the test: Binding assay σ (non-selective), [3H]DTG, rat cerebral cortex. The conditions noted are these: percent inhibition of control specific binding; compounds tested at 1×10^−6 M. Summed up:
as §1

Test [7] has as its target histaminergic H1 receptor (Homo sapiens, UniProt P35367). The experiment in a line: Binding assay H1 (h), [3H]pyrilamine, HEK-293 cells. The note with it: read-out: H1 [%]. Also noted: expressed in transfected cells; host or cells: HEK-293 cells. Summed up:
as §1

SMILES strings stand for the structures.

Sequence of serotoninergic 5-HT7 receptor (P34969 whole entry): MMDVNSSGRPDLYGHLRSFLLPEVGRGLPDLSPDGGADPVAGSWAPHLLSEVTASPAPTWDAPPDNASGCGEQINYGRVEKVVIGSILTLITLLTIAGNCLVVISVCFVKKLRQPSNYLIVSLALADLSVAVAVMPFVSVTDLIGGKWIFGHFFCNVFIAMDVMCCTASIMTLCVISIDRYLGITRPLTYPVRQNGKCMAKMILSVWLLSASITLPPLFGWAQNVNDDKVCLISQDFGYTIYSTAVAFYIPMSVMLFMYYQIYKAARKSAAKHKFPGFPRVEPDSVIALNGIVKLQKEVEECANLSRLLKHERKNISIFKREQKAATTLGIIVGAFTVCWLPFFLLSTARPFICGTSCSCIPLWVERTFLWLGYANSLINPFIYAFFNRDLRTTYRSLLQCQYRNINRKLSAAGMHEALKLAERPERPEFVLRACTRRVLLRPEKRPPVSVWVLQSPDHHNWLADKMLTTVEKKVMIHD
Sequence of histaminergic H1 receptor (P35367 whole entry): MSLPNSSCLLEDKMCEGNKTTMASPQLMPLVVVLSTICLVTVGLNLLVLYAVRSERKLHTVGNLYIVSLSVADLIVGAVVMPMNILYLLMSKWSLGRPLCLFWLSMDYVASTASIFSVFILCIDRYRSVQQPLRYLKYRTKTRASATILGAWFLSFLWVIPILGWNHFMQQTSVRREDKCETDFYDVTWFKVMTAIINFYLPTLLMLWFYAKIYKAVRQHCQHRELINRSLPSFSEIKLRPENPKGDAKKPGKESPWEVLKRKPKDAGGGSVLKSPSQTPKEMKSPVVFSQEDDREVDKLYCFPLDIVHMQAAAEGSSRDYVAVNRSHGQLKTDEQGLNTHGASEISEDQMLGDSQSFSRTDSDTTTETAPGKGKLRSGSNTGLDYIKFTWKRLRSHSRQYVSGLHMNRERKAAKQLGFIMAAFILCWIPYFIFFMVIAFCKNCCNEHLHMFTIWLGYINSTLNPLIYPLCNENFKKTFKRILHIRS

With `O=S(=O)(NCCCCN1CCC(c2noc3cc(F)ccc23)CC1)c1cc2ccccc2s1` [Compound 312, N-[4-[4-(6-Fluoro-1,2-benzoxazol-3-yl)piperidin-1-yl]butyl]benzothiophene-2-sulphonamide], the inhibition at 1 µM in [1] amounted to 86%; at dopaminergic D2 receptor [2] it was 90%; on adrenergic α2C receptor [3], 92%; in test [4] it was 97%; at dopaminergic D2 receptor [5], 99%; on adrenergic α2C receptor [6], 39%. Besides, the results for the inhibition at 1 µM (at muscarinic M3 receptor; on adrenergic α1A receptor; in test [7]) were 19%, 100% and 86%, respectively. For the same compound, the activation at 1 µM was 4% on dopaminergic D2 receptor [2], -2% in test [4], 61% on adrenergic α2C receptor [6] and 0% at adrenergic α1A receptor. In addition, the “σ [%]” value with sigma σ receptor came out at 71%.
Regarding `O=S(=O)(NCCCCN1CCC(c2noc3cc(F)ccc23)CC1)c1csc2ccccc12` [Compound 313, N-[4-[4-(6-Fluoro-1,2-benzoxazol-3-yl)piperidin-1-yl]butyl]benzothiophene-3-sulphonamide], the inhibition at 1 µM in test [1] is 72%; on dopaminergic D2 receptor [2] it was 85%; on adrenergic α2C receptor [3], 100%; in test [4], 100%; at dopaminergic D2 receptor [5], 101%; at adrenergic α2C receptor [6], 46%. In addition, the inhibition at 1 µM turned out to be 25% at muscarinic M3 receptor, 100% at adrenergic α1A receptor and 90% in [7]. In addition, the activation at 1 µM at dopaminergic D2 receptor [2] is -5%; in test [4], -2%; at adrenergic α2C receptor [6] it was -11%; at adrenergic α1A receptor it was 0%. The “σ [%]” value in the test on sigma σ receptor worked out at 83%.
As to `O=S(=O)(NCCCCN1CCC(c2noc3cc(F)ccc23)CC1)c1cc2ccc(Cl)cc2s1` [Compound 314, 6-Chloro-N-[4-[4-(6-fluoro-1,2-benzoxazol-3-yl)piperidin-1-yl]butyl]benzothiophene-2-sulphonamide], the inhibition at 1 µM in [1] was 75%; on dopaminergic D2 receptor [2], 86%; at adrenergic α2C receptor [3], 108%; in [4], 95%; at dopaminergic D2 receptor [5], 99%; at adrenergic α2C receptor [6] it was 30%. Moreover, the values for the inhibition at 1 µM (on muscarinic M3 receptor; on adrenergic α1A receptor; in test [7]) were 13%, 100% and 93%, respectively. Moreover, the activation at 1 µM at dopaminergic D2 receptor [2] was 9%; in test [4] it was -3%; on adrenergic α2C receptor [6], -2%; on adrenergic α1A receptor it was 1%. For the same compound, the “σ [%]” value with sigma σ receptor is reported as 49%.
On to `N#Cc1cccc(S(=O)(=O)NCCCN2CCC(c3noc4cc(F)ccc34)CC2)c1` [Compound 338, 3-cyano-N-[3-[4-(6-fluoro-1,2-benzoxazol-3-yl)piperidin-1-yl]propyl]benzenesulphonamide], for which the inhibition at 1 µM in [1] came to 80%; at dopaminergic D2 receptor [2], 88%; at adrenergic α2C receptor [3], 104%; in test [4] it was 100%; at dopaminergic D2 receptor [5], 98%; on adrenergic α2C receptor [6], 9%. The inhibition at 1 µM was determined as 1% at muscarinic M3 receptor, 100% on adrenergic α1A receptor and 95% in [7]. Also, the activation at 1 µM on dopaminergic D2 receptor [2] was 3%; in test [4], -3%; on adrenergic α2C receptor [6], -3%; at adrenergic α1A receptor, 2%. In addition, the “σ [%]” value in the test with sigma σ receptor is 72%.
